Test results taken from patent publication US9725465B2, “Biaryl acetamide compounds and methods of use thereof” (Ambit Biosciences Corporation, priority 2013, dated 2017).

Experiments:
FLT3 kinase = FLT3 kinase (Homo sapiens (Human), UniProt P36888); assay: Competition binding assay (Kd), FLT3; conditions: competition binding
KIT kinase = KIT kinase (Homo sapiens (Human), UniProt P10721); assay: Competition binding assay (Kd), KIT; conditions: competition binding
Outline: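 Kinase, as T7 phage fusion or HEK-293-expressed DNA-tagged protein, competed off immobilised ligand beads by test compound (eleven-point threefold dilutions, from 100× DMSO stocks). Eluted kinase quantified by qPCR to derive Kd; DMSO used as control.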

Chain of FLT3 kinase (P36888 27-993): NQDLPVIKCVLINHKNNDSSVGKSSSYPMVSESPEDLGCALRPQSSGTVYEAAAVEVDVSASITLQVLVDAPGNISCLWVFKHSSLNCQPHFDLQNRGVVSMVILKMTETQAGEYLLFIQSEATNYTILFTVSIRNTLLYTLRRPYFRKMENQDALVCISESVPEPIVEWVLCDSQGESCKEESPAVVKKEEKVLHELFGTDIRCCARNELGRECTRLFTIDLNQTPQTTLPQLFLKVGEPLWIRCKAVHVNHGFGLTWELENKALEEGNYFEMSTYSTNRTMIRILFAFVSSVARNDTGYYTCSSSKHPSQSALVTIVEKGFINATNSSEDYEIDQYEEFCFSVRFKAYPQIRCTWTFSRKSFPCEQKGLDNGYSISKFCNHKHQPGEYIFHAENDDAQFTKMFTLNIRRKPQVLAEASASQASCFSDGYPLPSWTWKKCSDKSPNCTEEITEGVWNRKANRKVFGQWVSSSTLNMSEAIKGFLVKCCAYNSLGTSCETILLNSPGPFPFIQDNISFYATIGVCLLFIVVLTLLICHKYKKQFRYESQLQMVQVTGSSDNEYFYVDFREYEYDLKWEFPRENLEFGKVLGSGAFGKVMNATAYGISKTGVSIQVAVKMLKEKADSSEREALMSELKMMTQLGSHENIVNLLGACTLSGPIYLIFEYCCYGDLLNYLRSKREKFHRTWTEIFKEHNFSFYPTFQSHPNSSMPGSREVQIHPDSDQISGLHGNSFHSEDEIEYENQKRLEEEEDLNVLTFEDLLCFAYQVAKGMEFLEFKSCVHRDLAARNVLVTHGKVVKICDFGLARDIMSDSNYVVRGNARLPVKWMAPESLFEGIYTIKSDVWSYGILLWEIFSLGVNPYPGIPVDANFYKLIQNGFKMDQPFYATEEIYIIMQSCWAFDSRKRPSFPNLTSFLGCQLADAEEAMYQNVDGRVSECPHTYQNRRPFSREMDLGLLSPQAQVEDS
Chain of KIT kinase (P10721 26-976): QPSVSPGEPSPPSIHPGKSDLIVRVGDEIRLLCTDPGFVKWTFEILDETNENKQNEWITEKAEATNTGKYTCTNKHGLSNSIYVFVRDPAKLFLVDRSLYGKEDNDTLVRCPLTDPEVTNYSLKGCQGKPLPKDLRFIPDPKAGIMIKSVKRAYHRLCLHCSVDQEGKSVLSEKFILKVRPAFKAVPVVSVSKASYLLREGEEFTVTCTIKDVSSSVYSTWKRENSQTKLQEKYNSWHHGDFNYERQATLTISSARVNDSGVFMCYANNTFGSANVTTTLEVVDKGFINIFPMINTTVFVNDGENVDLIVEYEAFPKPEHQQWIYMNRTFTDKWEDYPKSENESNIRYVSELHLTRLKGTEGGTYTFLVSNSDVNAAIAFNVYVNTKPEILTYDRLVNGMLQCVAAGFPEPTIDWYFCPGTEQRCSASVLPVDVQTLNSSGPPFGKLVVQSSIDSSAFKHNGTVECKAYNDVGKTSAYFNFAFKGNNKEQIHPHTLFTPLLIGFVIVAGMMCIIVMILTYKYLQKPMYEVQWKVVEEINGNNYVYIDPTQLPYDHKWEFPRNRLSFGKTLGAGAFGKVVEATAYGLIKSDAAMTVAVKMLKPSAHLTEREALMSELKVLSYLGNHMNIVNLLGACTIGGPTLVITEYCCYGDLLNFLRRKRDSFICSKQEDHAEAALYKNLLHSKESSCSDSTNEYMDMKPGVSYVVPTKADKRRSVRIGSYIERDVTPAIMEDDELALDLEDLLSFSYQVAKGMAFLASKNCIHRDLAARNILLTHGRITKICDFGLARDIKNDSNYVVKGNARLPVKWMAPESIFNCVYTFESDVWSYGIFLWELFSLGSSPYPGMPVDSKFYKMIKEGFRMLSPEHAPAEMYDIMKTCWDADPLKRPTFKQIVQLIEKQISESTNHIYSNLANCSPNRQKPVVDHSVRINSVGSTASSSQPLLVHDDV

| SMILES | Kd (FLT3 kinase) [nM] | Kd (KIT kinase) [nM] |
| --- | --- | --- |
| COc1cc2nc(-c3ccc(CC(=O)Nc4cc(C5(C(F)(F)F)CC5)on4)c(F)c3)cnc2cc1OCCN1CC2CC(C1)O2 [Example 223, 2-[2-fluoro-4-[7-methoxy-6-[2-(6-oxa-3-azabicyclo[3.1.1]heptan-3-yl)ethoxy]quinoxalin-2-yl]phenyl]-N-[5-[1-(trifluoromethyl)cyclo-propyl]isoxazol-3-yl]acetamide] | < 5 | < 5 |
| COc1cc2nc(-c3ccc(CC(=O)Nc4cc(C5(C(F)(F)F)CC5)on4)c(F)c3)cnc2cc1OCCN1CC2CC1CO2 (centres unmarked) [Example 224, 2-[2-fluoro-4-[7-methoxy-6-[2-(2-oxa-5-azabicyclo[2.2.1]heptan-5-yl)ethoxy]quinoxalin-2-yl]phenyl]-N-[5-[1-(trifluoromethyl)cyclo-propyl]isoxazol-3-yl]acetamide] | < 5 | < 5 |
| COc1cc2ncc(-c3cc(F)c(CC(=O)Nc4cc(C(C)(C)C(F)(F)F)on4)c(F)c3)nc2cc1OC [Example 225, 2-[4-(6,7-dimethoxyquinoxalin-2-yl)-2,6-difluoro-phenyl]-N-[5-(2,2,2-trifluoro-1,1-dimethyl-ethyl)isoxazol-3-yl]acetamide] | < 5 | < 5 |
| COc1cc2ncc(-c3cc(F)c(CC(=O)Nc4cc(C5(C(F)(F)F)CC5)on4)c(F)c3)nc2cc1OC [Example 226, 2-[4-(6,7-dimethoxyquinoxalin-2-yl)-2,6-difluoro-phenyl]-N-[5-[1-(trifluoromethyl)cyclo-propyl]isoxazol-3-yl]acetamide] | < 5 | < 5 |
| COc1cc2ncc(-c3ccc(CC(=O)Nc4cc(C5(C(F)(F)F)CC5)on4)c(F)c3)nc2cc1OCCCN [Example 227, 2-[4-[7-(3-aminopropoxy)-6-methoxy-quinoxalin-2-yl]-2-fluoro-phenyl]-N-[5-[1-(trifluoromethyl)cyclo-propyl]isoxazol-3-yl]acetamide] | < 5 | < 5 |
| COc1cc2nc(-c3ccc(CC(=O)Nc4cc(C5(C(F)(F)F)CC5)nn4C)c(F)c3)cnc2cc1OCCN1CCOCC1 [Example 228, 2-[2-fluoro-4-[7-methoxy-6-(2-morpholino-ethoxy)quinoxalin-2-yl]phenyl]-N-[2-methyl-5-[1-(trifluoromethyl)cyclo-propyl]pyrazol-3-yl]acetamide] | < 5 | < 5 |
| COc1cc2ncc(-c3cnc(CC(=O)Nc4cc(C(C)(C)C(F)(F)F)on4)c(F)c3)nc2cc1OC [Example 229, 2-[5-(6,7-dimethoxyquinoxalin-2-yl)-3-fluoro-2-pyridyl]-N-[5-(2,2,2-trifluoro-1,1-dimethyl-ethyl)isoxazol-3-yl]acetamide] | < 5 | < 5 |
| COc1cc2nc(-c3ccc(CC(=O)Nc4cc(C5(C(F)(F)F)CC5)n[nH]4)c(F)c3)cnc2cc1OCCN1CCOCC1 [Example 230, 2-[2-fluoro-4-[7-methoxy-6-(2-morpholino-ethoxy)quinoxalin-2-yl]phenyl]-N-[3-[1-(trifluoro-methyl)cyclopropyl]-1H-pyrazol-5-yl]acetamide] | < 5 | < 5 |
| COc1cc2nc(-c3ccc(CC(=O)Nc4cc(C5(C(F)(F)F)CC5)on4)cc3)cnc2cc1OCCN1CCOCC1 [Example 231, 2-[4-[7-methoxy-6-(2-morpholinoethoxy)quinoxalin-2-yl]phenyl]-N-[5-[1-(trifluoromethyl)cyclo-propyl]isoxazol-3-yl]acetamide] | < 5 | < 5 |
| COc1cc2cc(-c3ccc(CC(=O)Nc4cc(C5(C(F)(F)F)CC5)on4)c(F)c3)cnc2cc1OCCN1CCOCC1 [Example 232, 2-[2-fluoro-4-[6-methoxy-7-(2-morpholinoethoxy)-3-quinolyl]phenyl]-N-[5-[1-(trifluoromethyl)cyclo-propyl]isoxazol-3-yl]acetamide] | < 5 | < 5 |
| COc1cc2nc(-c3ccc(CC(=O)Nc4cc(C5(C(F)(F)F)CC5)on4)c(F)c3)cnc2cc1C(C)(O)CO (centres unmarked) [Example 233, 2-[4-[6-(1,2-dihydroxy-1-methyl-ethyl)-7-methoxy-quinoxalin-2-yl]-2-fluoro-phenyl]-N-[5-[1-(trifluoro-methyl)cyclopropyl]isoxazol-3-yl]acetamide] | < 5 | < 5 |
| COc1cc2ncc(-c3ccc(CC(=O)Nc4cc(C5(C(F)(F)F)CC5)on4)c(F)c3)nc2cc1OCCN1CCOCC1 [Example 234, 2-[2-fluoro-4-[6-methoxy-7-(2-morpholino-ethoxy)quinoxalin-2-yl]phenyl]-N-[5-[1-(trifluoro-methyl)cyclopropyl]isoxazol-3-yl]acetamide] | < 5 | < 5 |
| COc1cc2nc(-c3ccc(CC(=O)Nc4cc(C(C)(C)C(F)(F)F)n[nH]4)c(F)c3)cnc2cc1OCCN1CCOCC1 [Example 235, 2-[2-fluoro-4-[7-methoxy-6-(2-morpholino-ethoxy)quinoxalin-2-yl]phenyl]-N-[3-(2,2,2-trifluoro-1,1-dimethyl-ethyl)-1H-pyrazol-5-yl]acetamide] | < 5 | < 5 |
| COc1cc2ncc(-c3ccc(CC(=O)Nc4cc(C5(C(F)(F)F)CC5)on4)c(F)c3)nc2cc1OCC(O)CO (centres unmarked) [Example 236, 2-[4-[7-(2,3-dihydroxypropoxy)-6-methoxy-quinoxalin-2-yl]-2-fluoro-phenyl]-N-[5-[1-(trifluoromethyl)cyclo-propyl]isoxazol-3-yl]acetamide] | < 5 | < 5 |
| COc1cc2nc(-c3ccc(CC(=O)Nc4cc(C5(C(F)(F)F)CC5)on4)c(F)c3)cnc2cc1OCCCNC(C)=O [Example 237, 2-[4-[6-(3-acetamidopropoxy)-7-methoxy-quinoxalin-2-yl]-2-fluoro-phenyl]-N-[5-[1-(trifluoromethyl)cyclo-propyl]isoxazol-3-yl]acetamide] | < 5 | < 5 |
| COc1cc2nc(-c3ccc(CC(=O)Nc4cc(C5(C(F)(F)F)CC5)on4)c(F)c3)cnc2cc1OCC(O)CO (centres unmarked) [Example 238, 2-[4-[6-(2,3-dihydroxypropoxy)-7-methoxy-quinoxalin-2-yl]-2-fluoro-phenyl]-N-[5-[1-(trifluoromethyl)cyclo-propyl]isoxazol-3-yl]acetamide] | < 5 | < 5 |
| COc1cc2ncc(-c3ccc(CC(=O)Nc4cc(C5(C(F)(F)F)CC5)on4)c(F)c3)nc2cc1OCC(C)(C)O [Example 239, 2-[2-fluoro-4-[7-(2-hydroxy-2-methyl-propoxy)-6-methoxy-quinoxalin-2-yl]phenyl]-N-[5-[1-(trifluoro-methyl)cyclopropyl]isoxazol-3-yl]acetamide] | < 5 | < 5 |
| COc1cc2nc(-c3ccc(CC(=O)Nc4cc(C5(C(F)(F)F)CC5)on4)c(F)c3)cnc2cc1OCCN1CCCOCC1 [Example 240, 2-[2-fluoro-4-[7-methoxy-6-[2-(1,4-oxazepan-4-yl)ethoxy]quinoxalin-2-yl]phenyl]-N-[5-[1-(trifluoromethyl)cyclo-propyl]isoxazol-3-yl]acetamide] | < 5 | < 5 |
| COc1cc2nc(-c3ccc(CC(=O)Nc4cc(C5(C(F)(F)F)CC5)on4)c(F)c3)cnc2cc1OCCN1CCNCC1 [Example 241, 2-[2-fluoro-4-[7-methoxy-6-(2-piperazin-1-ylethoxy)quinoxalin-2-yl]phenyl]-N-[5-[1-(trifluoromethyl)cyclo-propyl]isoxazol-3-yl]acetamide] | < 5 | < 5 |
